The NIST ThermoML archive (doi:10.1021/je060271a)

Settings: 283.16 K, Liquid, Vibrating tube method

CCCC(=O)OCC(COC(=O)CCC)(COC(=O)CCC)COC(=O)CCC [pentaerythritol tetrabutyrate]
Settings	mass density [kg/m3]
6243.9 kPa	1062.8
6250.7 kPa	1062.7
6257.4 kPa	1062.7
6265.2 kPa	1062.8
6271.9 kPa	1062.7
6278.8 kPa	1062.7
6300.1 kPa	1062.8
6308.2 kPa	1062.8
6314.8 kPa	1062.8
6321.7 kPa	1062.7
6328.1 kPa	1062.7
6336.4 kPa	1062.8
6343.5 kPa	1062.8
6350.2 kPa	1062.8
6357.3 kPa	1062.8
6365.3 kPa	1062.7
6372 kPa	1062.8
6379.3 kPa	1062.6
6387.5 kPa	1062.7
6394.3 kPa	1062.7
6401.4 kPa	1062.9
6408.5 kPa	1062.8
6416.8 kPa	1062.8
6423.7 kPa	1062.9
6432.1 kPa	1062.8
6439.2 kPa	1062.8
6446.1 kPa	1062.8
6453.2 kPa	1062.8
6460.5 kPa	1062.8
6469.1 kPa	1062.8
6476 kPa	1062.8
6483.3 kPa	1062.8
6491.8 kPa	1062.9
6498.7 kPa	1062.8
6505.9 kPa	1062.9
6513.4 kPa	1062.8
6522.2 kPa	1062.9
6529.1 kPa	1062.9
6536.5 kPa	1062.8
6543.9 kPa	1062.9
6552.9 kPa	1062.9
6560.5 kPa	1062.9
6567.3 kPa	1062.9
6575.9 kPa	1062.8
6583.2 kPa	1062.9
6590.8 kPa	1062.9
6598.2 kPa	1062.9
6606.8 kPa	1062.9
6614.3 kPa	1062.9
6621.5 kPa	1062.9
6630.5 kPa	1062.9
6638.3 kPa	1062.9
6645.9 kPa	1062.8
6653.6 kPa	1062.9
6662.1 kPa	1063
6669.8 kPa	1062.9
6678.8 kPa	1063
6685.9 kPa	1063
6693.8 kPa	1063
6701.4 kPa	1063.1
6710.6 kPa	1063
6718.2 kPa	1062.9
6725.8 kPa	1063
6735.1 kPa	1062.8
6742.9 kPa	1063.1
6750.9 kPa	1063
6759.3 kPa	1062.9
6766.9 kPa	1062.9
6774.9 kPa	1063
6784.2 kPa	1063
6799.4 kPa	1063
6808.2 kPa	1063.1
6815.3 kPa	1063
